Measured values taken from patent US9090583B2, “Benzopyrone estrogen receptor regulator” (BEIJING SHENOGEN PHARMA GROUP LTD., priority 2010, dated 2015).
Read-outs that look alike come from different tables or passages of the source.

Legend:
MDA-MB-231 cells = assay: CellTiter-Glo Luminescent Cell Viability Assay on ER-negative breast cancer MDA-MB-231 cells; assay type: cell-based; details: average ± standard deviation when tested more than 3 times, read-out: Inhibition of the viability of breast cancer cells, IC50
Method: A: In Vitro CellTiter-Glo® Luminescent Cell Viability Assay on ER-Negative Breast Cancer MDA-MB-231 Cells:
MDA-MB-231 cells were maintained at 37° C., under 5% CO2 atmosphere in DMEM containing 10% fetal calf serum. The cells were seeded on 96-well plate at a density of 6×10^3 cells per well. MDA-MB-231 cells were treated with a test compound dissolved in DMSO at the concentrations of zero, 0.3 μM, 0.5 μM, 1 μM, 2 μM, 3 μM, 5 μM, 10 μM, 20 μM, 30 μM, 50 μM and 100 μM for 72 hours. Treated cells were examined by CellTiter-Glo® Luminescent Cell Viability Assay Kit (Promega), and luminescence values were recorded with Envision.

MCF7 cells = assay: CellTiter-Glo Luminescent Cell Viability Assay on ER-positive breast cancer MCF-7 cells; assay type: cell-based, human; details: average ± standard deviation when tested more than 3 times, read-out: Inhibition of the viability of breast cancer cells, IC50
Source text: B: In Vitro CellTiter-Glo® Luminescent Cell Viability Assay on ER-Positive Breast Cancer MCF-7 Cells:
MCF7 cells are breast cancer cell lines that highly express ER-66, ER-46 and ER-36. (Relevance of breast cancer cell lines as models for breast tumours: an update. Marc Lacroix, Guy Leclercq, Breast Cancer Research and Treatment (2004) 83, 249-289; Wang et al., Proc. Natl. Acad. Sci. U.S.A. 103:9063-9068 (2006)). MCF7 cells were obtained from ATCC and maintained in Dulbecco's Modified Eagles Medium (DMEM) and 10% fetal calf serum at 37° C., under 5% CO2 atmosphere. The cells were seeded on 96-well plate at a density of 6×10^3 cells per well. MCF7 cells were treated with a test compound dissolved in DMSO at the concentrations of zero, 0.3 μM, 0.5 μM, 1 μM, 2 μM, 3 μM, 5 μM, 10 μM, 20 μM, 30 μM, 50 μM and 100 μM for 72 hours. Treated cells were examined by CellTiter-Glo® Luminescent Cell Viability Assay Kit (Promega), and luminescence values were recorded with Envision.

Molecule | IC50 (MDA-MB-231 cells; 72 hours) | IC50 (MCF7 cells; 72 hours) | IC50 (MDA-MB-231 cells; Homo sapiens, MDA-MB-231, 72 h) | IC50 (MCF7 cells; Homo sapiens, MCF7, 72 h)
2-(benzo[b]thiazol-2-yl)-5,7-dihydroxy-3-methoxy-6,8-di(3-3-methyl-2-buten-1-yl)-4H-benzopyran-4-one [Compound 49] | 17.9 µM | 17.8 µM |  | 
2-(benzo[d][1,3]dioxo-5-yl)-5,7-dihydroxy-3-methoxy-6,8-di(3-methyl-2-buten-1-yl)-4H-benzopyran-4-one [Compound 21] | 13.8 ± 2.1 µM | 47.2 ± 22.5 µM |  | 
2-(piperazin-2-yl)-5,7-dihydroxy-3-methoxy-6,8-di(3-methyl-2-buten-1-yl)-4H-benzopyran-4-one [Compound 30] | 77.2 µM | > 100 µM |  | 
COc1ccc(-c2oc3c(CC=C(C)C)c(O)c(CC=C(C)C)c(O)c3c(=O)c2OC)cc1F [Compound 1, 2-(3-fluoro-4-methoxyphenyl)-5,7-dihydroxy-3-methoxy-6,8-di(3-methyl-2-buten-1-yl)-4H-benzopyran-4-one] |  |  | 14.2 ± 5.18 µM | 16 µM
COc1c(-c2cccc(F)c2)oc2c(CC=C(C)C)c(O)c(CC=C(C)C)c(O)c2c1=O [Compound 3, 2-(3-fluorophenyl)-5,7-dihydroxy-3-methoxy-6,8-di(3-methyl-2-buten-1-yl)-4H-benzopyran-4-one] |  |  | 12.6 ± 2.4 µM | 10.4 ± 0.22 µM
COc1cc(-c2oc3c(CC=C(C)C)c(O)c(CC=C(C)C)c(O)c3c(=O)c2OC)ccc1F [Compound 9, 2-(4-fluoro-3-methoxyphenyl)-5,7-dihydroxy-3-methoxy-6,8-di(3-methyl-2-butylene-1-yl)-4H-benzopyran-4-one] | > 100 µM | > 100 µM |  | 
COc1c(-c2ccc(Cl)c(C)c2)oc2c(CC=C(C)C)c(O)c(CC=C(C)C)c(O)c2c1=O [Compound 11, 2-(4-chloro-3-methylphenyl)-5,7-dihydroxy-3-methoxy-6,8-di(3-methyl-2-buten-1-yl)-4H-benzopyran-4-one] |  |  | 13.8 µM | 15.5 µM
COc1c(-c2ccc(Cl)c(Cl)c2)oc2c(CC=C(C)C)c(O)c(CC=C(C)C)c(O)c2c1=O [Compound 12, 2-(3,4-dichlorophenyl)-5,7-dihydroxy-3-methoxy-6,8-di(3-methyl-2-butylene-1-yl)-4H-benzopyran-4-one] | 16.1 µM | > 100 µM |  | 
COc1c(-c2ccc(Cl)c(C(F)(F)F)c2)oc2c(CC=C(C)C)c(O)c(CC=C(C)C)c(O)c2c1=O [Compound 13, 2-(4-chloro-3-trifluoromethylphenyl)-5,7-dihydroxy-3-methoxy-6,8-di(3-methyl-2-butylene-1-yl)-4H-benzopyran-4-one] | 22.7 µM | 35.4 µM |  | 
COc1c(-c2ccc(Cl)cc2F)oc2c(CC=C(C)C)c(O)c(CC=C(C)C)c(O)c2c1=O [Compound 14, 2-(2-fluoro-4-chlorophenyl)-5,7-dihydroxy-3-methoxy-6,8-di(3-methyl-2-butylene-1-yl)-4H-benzopyran-4-one] | 23.6 µM | 13.5 µM |  | 
COc1c(-c2ccc(C)cc2)oc2c(CC=C(C)C)c(O)c(CC=C(C)C)c(O)c2c1=O [Compound 16, 2-(4-methylphenyl)-5,7-dihydroxy-3-methoxy-6,8-di(3-methyl-2-butylene-1-yl)-4H-benzopyran-4-one] | 16.3 µM | > 100 µM |  | 
COc1c(-c2ccc(C(C)C)cc2)oc2c(CC=C(C)C)c(O)c(CC=C(C)C)c(O)c2c1=O [Compound 17, 2-(4-isopropylphenyl)-5,7-dihydroxy-3-methoxy-6,8-di(3-methyl-2-butylene-1-yl)-4H-benzopyran-4-one] | 25.6 µM | 40.1 µM |  | 
COc1c(-c2ccc3ccccc3c2)oc2c(CC=C(C)C)c(O)c(CC=C(C)C)c(O)c2c1=O [Compound 19, 2-(naphthalen-2-yl)-5,7-dihydroxy-3-methoxy-6,8-di(3-methyl-2-butylene-1-yl)-4H-benzopyran-4-one] | 13.7 ± 1.99 µM | 27.4 µM |  | 
COc1c(-c2ccc3c(c2)OCCO3)oc2c(CC=C(C)C)c(O)c(CC=C(C)C)c(O)c2c1=O [Compound 20, 2-(2,3-dihydrobenzo[b][1,4]dioxan-6-yl)-5,7-dihydroxy-3-methoxy-6,8-di(3-methyl-2-buten-1-yl)-4H-benzopyran-4-one] | 12.6 µM | > 100 µM |  | 
CCOc1ccc(-c2oc3c(CC=C(C)C)c(O)c(CC=C(C)C)c(O)c3c(=O)c2OC)cc1F [Compound 23, 2-(3-fluoro-4-ethoxylphenyl)-5,7-dihydroxy-3-methoxy-6,8-di(3-methyl-2-buten-1-yl)-4H-benzopyran-4-one] |  |  | 28.8 µM | 20.1 µM
CCOc1ccc(-c2oc3c(CC=C(C)C)c(O)c(CC=C(C)C)c(O)c3c(=O)c2OC)cc1 [Compound 24, 2-(4-ethoxyphenyl)-5,7-dihydroxy-3-methoxy-6,8-di(3-methyl-2-buten-1-yl)-4H-benzopyran-4-one] |  |  | > 100 µM | > 100 µM
COc1c(-c2cccnc2)oc2c(CC=C(C)C)c(O)c(CC=C(C)C)c(O)c2c1=O [Compound 28, 2-(pyridin-3-yl)-5,7-dihydroxy-3-methoxy-6,8-di(3-methyl-2-buten-1-yl)-4H-benzopyran-4-one] |  |  | 18.1 ± 4.3 µM | 13.2 µM
COc1c(-c2ccccn2)oc2c(CC=C(C)C)c(O)c(CC=C(C)C)c(O)c2c1=O [Compound 29, 2-(pyridin-2-yl)-5,7-dihydroxy-3-methoxy-6,8-di(3-methyl-2-buten-1-yl)-4H-benzopyran-4-one] |  |  | > 100 µM | 12 µM
COc1c(-c2ccncc2)oc2c(CC=C(C)C)c(O)c(CC=C(C)C)c(O)c2c1=O [Compound 31, 2-(pyridin-4-yl)-5,7-dihydroxy-3-methoxy-6,8-di(3-methyl-2-buten-1-yl)-4H-benzopyran-4-one] |  |  | 25.1 µM | > 100 µM
COc1c(-c2cncnc2)oc2c(CC=C(C)C)c(O)c(CC=C(C)C)c(O)c2c1=O [Compound 32, 2-(pyrimidin-5-yl)-5,7-dihydroxy-3-methoxy-6,8-di(3-methyl-2-buten-1-yl)-4H-benzopyran-4-one] |  |  | 20 µM | 34.4 µM
COc1c(-c2ncccn2)oc2c(CC=C(C)C)c(O)c(CC=C(C)C)c(O)c2c1=O [Compound 33, 2-(pyrimidin-2-yl)-5,7-dihydroxy-3-methoxy-6,8-di(3-methyl-2-buten-1-yl)-4H-benzopyran-4-one] |  |  | 22.3 µM | > 100 µM
COc1c(C2CC2)oc2c(CC=C(C)C)c(O)c(CC=C(C)C)c(O)c2c1=O [Compound 34, 2-cyclopropyl-5,7-dihydroxy-3-methoxy-6,8-di(3-methyl-2-buten-1-yl)-4H-benzopyran-4-one] |  |  | 25.6 µM | > 100 µM
COc1c(C2CCC2)oc2c(CC=C(C)C)c(O)c(CC=C(C)C)c(O)c2c1=O [Compound 35, 2-cyclobutyl-5,7-dihydroxy-3-methoxy-6,8-di(3-methyl-2-buten-1-yl)-4H-benzopyran-4-one] |  |  | > 100 µM | 88.1 µM
COc1c(C2CCCC2)oc2c(CC=C(C)C)c(O)c(CC=C(C)C)c(O)c2c1=O [Compound 36, 2-cyclopentyl-5,7-dihydroxy-3-methoxy-6,8-di(3-methyl-2-buten-1-yl)-4H-benzopyran-4-one] |  |  | > 100 µM | > 100 µM
COc1c(C2CCOC2)oc2c(CC=C(C)C)c(O)c(CC=C(C)C)c(O)c2c1=O (stereo not drawn) [Compound 38, 2-(terthydrofuran-3-yl)-5,7-dihydroxy-3-methoxy-6,8-di(3-methyl-2-buten-1-yl)-4H-benzopyran-4-one] | > 100 µM | 22.9 µM |  | 
COc1c(-c2cccs2)oc2c(CC=C(C)C)c(O)c(CC=C(C)C)c(O)c2c1=O [Compound 39, 2-(thiophen-2-yl)-5,7-dihydroxy-3-methoxy-6,8-di(3-methyl-2-buten-1-yl)-4H-benzopyran-4-one] |  |  | > 100 µM | 65.8 µM
COc1c(-c2ccsc2)oc2c(CC=C(C)C)c(O)c(CC=C(C)C)c(O)c2c1=O [Compound 40, 2-(thiophen-3-yl)-5,7-dihydroxy-3-methoxy-6,8-di(3-methyl-2-buten-1-yl)-4H-benzopyran-4-one] |  |  | 24 µM | 23.5 µM
COc1c(-c2ccco2)oc2c(CC=C(C)C)c(O)c(CC=C(C)C)c(O)c2c1=O [Compound 41, 2-(furan-2-yl)-5,7-dihydroxy-3-methoxy-6,8-di(3-methyl-2-buten-1-yl)-4H-benzopyran-4-one] |  |  | > 100 µM | 22.2 µM
CC(C)=CCc1c(O)c(CC=C(C)C)c2oc(-c3ccc(F)cc3)c(O)c(=O)c2c1O [Compound 97, 2-(4-fluorophenyl)-3,5,7-trihydroxy-6,8-di(3-methyl-2-buten-1-yl)-4H-benzopyran-4-one] |  |  | 21.4 µM | 
